Source: patent publication US4942159A, “Cephem compounds, their production and use” (Takeda Chemical Industries, Ltd., priority 1987, dated 1990)
Converted amounts (≈) assume the structure as drawn. “And” between values parts separate entries of the source, which are not always exact repeats. Equal entries are not always repeated.

Key:
[1] = test system: Staphylococcus aureus 308 A-1; experiment: MIC by agar dilution method (Trypticase soy agar), Staphylococcus aureus 308 A-1; assay type: cell-based; settings: 308A1, 37° C. overnight
Experimental: (§1) The MIC of each test compound (the compounds obtained in Examples 1 and 2) was determined by the agar dilution method. Thus, 1.0 ml aliquots of serial dilutions of the test compound in water were poured into petri dishes, and 9.0 ml of Trypticase soy agar is added to each dish and stirred. A suspension (about 10^8 CFU/ml) of each test organism is smeared on each agar plate, which is then incubated at 37° C. overnight. The lowest concentration of the test compound which causes a complete growth inhibition of the test organism was determined and taken as the MIC (minimal inhibitory concentration) against the same organism.
(1) Staphylococcus aureus 308 A-1

[2] = test system: Staphylococcus aureus 1840; experiment: MIC by agar dilution method (Trypticase soy agar), Staphylococcus aureus 1840; assay type: cell-based; settings: (2) Staphylococcus aureus 1840, 37° C. overnight
Experimental: as §1
(2) Staphylococcus aureus 1840

[3] = test system: Proteus morganii IFO 3168; experiment: MIC by agar dilution method (Trypticase soy agar), Proteus morganii IFO 3168; assay type: cell-based; settings: Morganella morganii, IFO3168, (3) Proteus morganii IFO 3168, 37° C. overnight
Experimental: as §1
(3) Proteus morganii IFO 3168

[4] = test system: Pseudomonas aeruginosa P 9; experiment: MIC by agar dilution method (Trypticase soy agar), Pseudomonas aeruginosa P 9; assay type: cell-based; settings: P9, (4) Pseudomonas aeruginosa P 9, 37° C. overnight
Experimental: as §1
(4) Pseudomonas aeruginosa P 9

[5] = concentration levels in plasma upon rectal administration (suppository), by biological assay; assay type: in vivo, rat (Wistar; settings: rectal suppository 50 mg/kg, fasted male Wistar rats
Experimental: Employing the compound (I) prepared in Example 1 mentioned below, the concentration levels in plasma (plasma levels of said compound) upon rectal administration were measured by the procedure described below.
Suppositories containing the product of Example 1 which were prepared according to Example 3 mentioned below were given (50 mg/kg in terms of said product) into the rectum of three male rats No. 1 to 3 (Wistar, body weight of 300 to 400 g) being fasted for 20 hours. The anuses were closed with an adhesive agent, and blood sample were taken from the tail veins after 0.5, 1, 2 and 4 hours to determine quantitatively the plasma levels of the product of Example 1 by means of the biological assay method. As the test microorganisms for the assay, Escherichia coli NIHJ and Proteus rettgeri ATCC 9250 were employed.
A 250 mg portion of finely divided 7β-[2-(5-amino-1,2,4-thiadiazol-3-yl)-(Z)-2-methoxyiminoacetamido]-3- [(6-aminoimidazo[1,2-b]pyridazinium-1-yl)methyl]-3-cephem-4-carboxylate and 4750 mg of Isocacao MO-5 (produced by Kao, Ltd. in Japan) were uniformly sitrred at 40° to 45° C. and cooled to 35° C. under stiring, followed by filling the mixture into a suppository container made of plastics and gradually cooling to obtain a suppository.

| Structure (SMILES) | MIC [1] | MIC [2] | MIC [3] | MIC [4] | Concentration levels in plasma, 0.5 hr ([5]; 0.5 hr, individual rats: No. 1, No. 2, No. 3, 30 min) | Concentration levels in plasma, 1 hr ([5]; 1 hr, individual rats: No. 1, No. 2, No. 3, 60 min) | Concentration levels in plasma, 2 hr ([5]; 2 hr, individual rats: No. 1, No. 2, No. 3, 120 min) | Concentration levels in plasma, 4 hr ([5]; 4 hr, individual rats: b116 = No. 1, b117 = No. 2 (No. 3 not tested), 240 min) | concentration at 4 h ([5]; rat, plasma, 50 mg/kg, 4 hr, individual rats: b116 = No. 1, b117 = No. 2 (No. 3 not tested)) |
| --- | --- | --- | --- | --- | --- | --- | --- | --- | --- |
| CO/N=C(\C(=O)N[C@@H]1C(=O)N2C(C(=O)[O-])=C(C[n+]3ccn4nc(N)ccc43)CS[C@H]12)c1nsc(N)n1 [Example 1, 7β-[2-(5-amino-1,2,4-thiadiazol-3-yl)-(Z)-2-methoxyiminoacetamide]-3-[(6-aminoimidazo[1,2-b]pyridazinium-1-yl)methyl]-3-cephem-4-carboxylate] | 0.39 µg/mL (≈ 0.735 µM) | 0.78 µg/mL (≈ 1.47 µM) | 0.2 µg/mL (≈ 0.377 µM) | 0.39 µg/mL (≈ 0.735 µM) | 130 ng/mL and 2400 ng/mL and 5700 ng/mL | 740 ng/mL and 4200 ng/mL and 5900 ng/mL | 1700 ng/mL and 4600 ng/mL and 2700 ng/mL | 2800 ng/mL | 4300 ng/mL |
| CCO/N=C(\C(=O)N[C@@H]1C(=O)N2C(C(=O)[O-])=C(C[n+]3ccn4nc(N)ccc43)CS[C@H]12)c1nsc(N)n1 [Example 2, 7β-[2-(5-amino-1,2,4-thiadiazol-3-yl)-(Z)-2-ethoxyiminoacetamido]-3-[(6-aminoimidazo[1,2-b]pyridazinium-1-yl)methyl]-3-cephem-4-carboxylate] | 0.39 µg/mL (≈ 0.716 µM) | 0.78 µg/mL (≈ 1.43 µM) | 0.39 µg/mL (≈ 0.716 µM) | 0.78 µg/mL (≈ 1.43 µM) | – | – | – | – | – |
